Assays:
[1] = tested on: P. gingivalis adherence to streptococci (S. gordonii DL-1); experiment: Inhibition of P. gingivalis adherence to streptococci, two species biofilm culture model (confocal microscopy); format: cell-based; details: for P. gingivalis adherence to streptococci at 5 μM: 5 μM compound; for P. gingivalis adherence to streptococci at 20 μM: 20 μM compound; for inhibition of P. gingivalis adherence, dose dependence: tested at final concentrations of 5, 20 or 60 μM, 24 hrs anaerobic incubation
Method: Compounds 25, 27a, 34, 35 and 42 were tested to determine if they inhibited P. gingivalis adherence to streptococci using a two species biofilm culture model. Compounds of the invention (e.g. compounds of formula I) can also be tested using this method. A mid-exponential phase culture of S. gordonii DL-1 was harvested by centrifugation and the cells were suspended in phosphate buffered saline (PBS) at a density of 10^9 cfu/ml. A 1 ml aliquot was labeled with hexidium iodide (30 μM) for 15 minutes with gentle shaking. After washing three times with PBS, streptococci were suspended in growth medium and 100 μl was added to a 12 well microtiter plate (Grace Bio-Labs) and incubated anaerobically for 24 hrs.
P. gingivalis cells from an exponential culture were washed with PBS and labeled by reacting with 4 μg/ml carboxyfluorescein-succinyl ester for 30 minutes at 4° C. After washing three times with PBS, the cells were suspended in PBS at a density of 2×10^7 cfu/ml. The test compounds were dissolved in absolute ethanol to a final concentration of 30 mM and each was diluted into 100 μl P. gingivalis to final concentrations of 5, 20 or 60 μM and incubated for 30 minutes. After removal of unbound streptococci from the micotiter plate, P. gingivalis samples were then added to each well and incubated anaerobically for 24 hrs. A control well contained P. gingivalis that was pre-incubated with PBS alone.
Adherence of P. gingivalis to streptococci was analyzed using confocal laser scanning microscopy on an Olympus FluoView 500 inverted confocal microscope. Image stacks were acquired using Olympus FluoView software and rendered into 3 dimensional projections using Volocity Image Analysis software, where S. gordonii is depicted in red and P. gingivalis is shown in green/yellow. […] Compound 46 reduced P. gingivalis adherence to streptococci by 25% at 25 μM and by approximately 60% at 50 μM.

[2] = tested on: P. gingivalis biofilms on streptococci; experiment: Inhibition/disruption of P. gingivalis biofilms on streptococci by AgI/II-derived peptide; format: cell-based
Method: The plate assays above allow a quick examination of the kinetics of Mfa binding and inhibition of bacterial adherence. To determine if the Mfa-catalyzed compounds selected above inhibit the formation of P. gingivalis biofilms, or alternatively are capable of disrupting a pre-existing biofilm, dual species P. gingivalis-S. gordonii biofilms are grown and analyzed as previously described by Daep et al. (Daep, C. A., James, D. M., Lamont, R. J. and Demuth, D. R. 2006. Structural Characterization of Peptide-Mediated Inhibition of P. gingivalis Biofilm Formation. Infect. Immun. 74: 5756-5762; Daep, C. A., Lamont R. J. and Demuth, D. R. 2008. Interaction of P. gingivalis with oral streptococci requires a motif that resembles the eukaryotic nuclear receptor box protein-protein interaction domain. Infect. Immun. 76:3272-3280) using an open flow biofilm culture system. To determine if the inhibitors are capable of disrupting existing P. gingivalis-streptococcal biofilms, pre-formed biofilms are incubated with medium containing the inhibitor and analyzed as above. The inhibitors identified from the assays above are analyzed for in vivo efficacy in preventing P. gingivalis colonization in a mouse model of periodontitis.

P. gingivalis = experiment: Modified Baker mouse model of periodontitis (S. gordonii then P. gingivalis infection), alveolar bone loss; format: in vivo, Balb/cByJ mice; details: mice infected with S. gordonii and 10^7 cfu P. gingivalis; peptide added to the inoculum
Description: FIG. 6. Alveolar bone loss induced in Balb/cByJ mice in the presence and absence of BAR peptide. Sham infected animals were inoculated with CMC slurry without bacteria.
To determine how effectively the inhibitors limit or prevent P. gingivalis colonization in vivo, a modified Baker mouse model of periodontitis is used. The model is modified by first infecting with and establishing S. gordonii in the oral cavity of Balb/cByJ mice then subsequently challenging with P. gingivalis. In the presence of S. gordonii, a persistent infection of P. gingivalis (detected by 16S rDNA PCR 47 days post infection) can be established using an inoculum of 10^7 cfu. […] Thus, preventing P. gingivalis colonization of mice reduces alveolar bone loss.

## Cc1nc(-c2ccccc2)c(-c2ccccc2)o1 [Compound 25, 2-Methyl-4,5-diphenyloxazole]
[1]
  P. gingivalis adherence to streptococci at 5 μM: completely inhibited

## LEAAPKKVQDLLKKANITVKGAFQLFS [BAR peptide]
[2]
  inhibition of P. gingivalis adherence and formation of biofilms on streptococcal substrates: potently inhibits
[2]; pre-existing biofilms
  disruption of existing P. gingivalis biofilms: capable of disrupting existing P. gingivalis biofilms
[2]; read-out: I50, inhibition of development of P. gingivalis biofilms on streptococci
  IC50: 1300 nM
P. gingivalis
  alveolar bone loss: reduced to near sham infected levels

## CC(C)CNc1nc(NCC(C)C)nc(-c2ccccc2)n1 [Compound 46, N^2,N^4-Diisobutyl-6-phenyl-1,3,5-triazine-2,4-diamine]
[1]; 25 μM compound
  reduction of P. gingivalis adherence to streptococci at 25 μM: 25%
[1]; 50 μM compound
  reduction of P. gingivalis adherence to streptococci at 50 μM: approximately 60%

## [N-]=[N+]=NCc1nc(-c2ccccc2)c(-c2ccccc2)o1 [Compound 42, 2-(Azidomethyl)-4,5-diphenyloxazole]
[1]
  P. gingivalis adherence to streptococci at 20 μM: completely inhibited adherence
  inhibition of P. gingivalis adherence, dose dependence: dose dependent inhibition

## [N-]=[N+]=Nc1cccc(-c2nc(-c3ccccc3)c(-c3ccccc3)o2)c1 [Compound 35, 2-(3-azidophenyl)-4,5-diphenyloxazole]
[1]
  P. gingivalis adherence to streptococci at 20 μM: significantly reduced adherence
[1]; 60 μM compound
  P. gingivalis adherence to streptococci at 60 μM: completely blocked

## c1ccc(-c2nc(-c3ccccc3)c(-c3ccccc3)o2)cc1 [Compound 27a]
[1]; concentration of 60 (unit not given)
  P. gingivalis adherence to streptococci at a concentration of 60: completely blocked adherence
[1]
  inhibition of P. gingivalis adherence, dose dependence: dose dependent inhibition

## [N-]=[N+]=Nc1ccc(-c2nc(-c3ccccc3)c(-c3ccccc3)o2)cc1 [Compound 34, 2-(4-azidophenyl)-4,5-diphenyloxazole]
[1]
  P. gingivalis adherence to streptococci at 5 μM: significantly reduced
  P. gingivalis adherence to streptococci at 20 μM: completely blocked adherence

Source: US9167820B2, “Anti-biofilm compounds” (priority 2011, dated 2015)
